Data: PMC6050590 (Nature, 2017)
One block for each molecule: values may come before it.

How the values were obtained:
[1] = tested on: H3K27Ac in PC-3 cells; experiment: High content microscopy of H3K27Ac in PC-3 cells; format: cell-based
[2] = tested on: 22Rv1 cells; experiment: Proliferation of androgen depleted 22Rv1 cells; format: cell-based; settings: absence of androgens
[3] = tested on: PSA expression in 22Rv1 cells; experiment: qRT-PCR of PSA expression in androgen depleted 22Rv1 cells; format: cell-based; settings: absence of androgens, 7 h and 24 h
[4] = biological target: p300-HAT (Homo sapiens, UniProt Q09472); experiment: Surface plasmon resonance binding to p300-HAT; settings: SPR
[5] = biological target: p300-BHC (bromodomain-HAT-C/H3) domain (Homo sapiens, UniProt Q09472); settings: toward p300 and CBP
[6] = tested on: H3K27Ac and AR occupancy at the PSA enhancer, LnCaP-FGC cells; experiment: ChIP at the PSA enhancer in DHT-stimulated LnCaP-FGC cells; format: cell-based; settings: DHT 6 h
[7] = tested on: DHT responsive genes in 22Rv1 cells; format: cell-based; settings: androgen depleted 22Rv1 cells
[8] = tested on: c-Myc expression in 22Rv1 cells; experiment: c-Myc expression in androgen depleted 22Rv1 cells; format: cell-based
[9] = biological target: T1, p300-BHC (Homo sapiens, UniProt Q09472); experiment: Thermal shift assay with p300-BHC
[10] = biological target: dopamine transporter (Homo sapiens, UniProt Q01959); experiment: Non-epigenetic target panel, dopamine transporter binding; settings: at 10 µM
[11] = biological target: serotonin transporter (Homo sapiens, UniProt P31645); experiment: Non-epigenetic target panel, serotonin transporter binding; settings: at 10 µM
[12] = biological target: T1, p300-BHC; experiment: AlphaLISA-based peptide substrate binding assay
[13] = tested on: PSA expression in LnCaP-FGC cells; experiment: qRT-PCR of DHT-stimulated PSA expression in LnCaP-FGC cells; format: cell-based; settings: 7 h and 24 h
[14] = tested on: LuCaP-77 CR xenograft; experiment: LuCaP-77 CR castration resistant prostate cancer xenograft model; format: in vivo, SCID male mice; settings: 7 days dosing, 3 h post-dosing
[15] = Brain exposure; settings: in vivo
[16] = biological target: PCAF (Homo sapiens, UniProt Q92831); experiment: HAT family selectivity, PCAF; settings: at 10 µM
[17] = biological target: HAT1 (Homo sapiens, UniProt O14929); experiment: HAT family selectivity, HAT1; settings: at 10 µM
[18] = biological target: MYST3 (Homo sapiens, UniProt Q92794); experiment: HAT family selectivity, MYST3; settings: at 10 µM
[19] = biological target: MYST4 (Homo sapiens, UniProt Q8WYB5); experiment: HAT family selectivity, MYST4; settings: at 10 µM
[20] = biological target: TIP60 (Homo sapiens, UniProt Q92993); experiment: HAT family selectivity, TIP60; settings: at 10 µM
[21] = biological target: GCN5L2 (Homo sapiens, UniProt Q92830); experiment: HAT family selectivity, GCN5L2; settings: at 10 µM
[22] = tested on: H3K9Ac in PC-3 cells; experiment: High content microscopy of H3K9Ac in PC-3 cells; settings: Homo sapiens, PC-3, 3 h, read-out: EC50, decrease of H3K9Ac
[23] = tested on: AR+ prostate cancer cell lines; experiment: Cell proliferation of prostate cancer cell lines

T1 sequence (Q09472 1049-1809 limits assumed): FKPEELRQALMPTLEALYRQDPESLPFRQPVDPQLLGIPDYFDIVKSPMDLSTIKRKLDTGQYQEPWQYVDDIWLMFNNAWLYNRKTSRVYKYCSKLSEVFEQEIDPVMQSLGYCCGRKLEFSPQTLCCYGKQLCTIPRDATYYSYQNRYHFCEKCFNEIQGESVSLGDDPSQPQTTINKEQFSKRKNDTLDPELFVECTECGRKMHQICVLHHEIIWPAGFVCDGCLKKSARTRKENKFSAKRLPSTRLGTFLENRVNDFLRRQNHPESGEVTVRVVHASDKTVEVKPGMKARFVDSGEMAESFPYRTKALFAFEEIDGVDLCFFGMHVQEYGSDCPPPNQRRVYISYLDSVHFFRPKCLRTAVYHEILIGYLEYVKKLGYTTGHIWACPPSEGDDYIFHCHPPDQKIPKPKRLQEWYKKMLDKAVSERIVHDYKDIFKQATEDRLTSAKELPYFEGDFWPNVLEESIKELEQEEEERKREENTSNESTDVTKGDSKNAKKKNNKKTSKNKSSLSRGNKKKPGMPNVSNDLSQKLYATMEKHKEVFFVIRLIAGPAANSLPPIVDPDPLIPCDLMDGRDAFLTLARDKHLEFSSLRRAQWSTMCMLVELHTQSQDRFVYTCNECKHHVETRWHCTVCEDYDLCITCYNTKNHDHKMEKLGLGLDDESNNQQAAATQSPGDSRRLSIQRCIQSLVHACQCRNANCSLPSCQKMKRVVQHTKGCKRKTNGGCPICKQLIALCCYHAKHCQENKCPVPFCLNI
Chain of PCAF (Q92831 whole entry): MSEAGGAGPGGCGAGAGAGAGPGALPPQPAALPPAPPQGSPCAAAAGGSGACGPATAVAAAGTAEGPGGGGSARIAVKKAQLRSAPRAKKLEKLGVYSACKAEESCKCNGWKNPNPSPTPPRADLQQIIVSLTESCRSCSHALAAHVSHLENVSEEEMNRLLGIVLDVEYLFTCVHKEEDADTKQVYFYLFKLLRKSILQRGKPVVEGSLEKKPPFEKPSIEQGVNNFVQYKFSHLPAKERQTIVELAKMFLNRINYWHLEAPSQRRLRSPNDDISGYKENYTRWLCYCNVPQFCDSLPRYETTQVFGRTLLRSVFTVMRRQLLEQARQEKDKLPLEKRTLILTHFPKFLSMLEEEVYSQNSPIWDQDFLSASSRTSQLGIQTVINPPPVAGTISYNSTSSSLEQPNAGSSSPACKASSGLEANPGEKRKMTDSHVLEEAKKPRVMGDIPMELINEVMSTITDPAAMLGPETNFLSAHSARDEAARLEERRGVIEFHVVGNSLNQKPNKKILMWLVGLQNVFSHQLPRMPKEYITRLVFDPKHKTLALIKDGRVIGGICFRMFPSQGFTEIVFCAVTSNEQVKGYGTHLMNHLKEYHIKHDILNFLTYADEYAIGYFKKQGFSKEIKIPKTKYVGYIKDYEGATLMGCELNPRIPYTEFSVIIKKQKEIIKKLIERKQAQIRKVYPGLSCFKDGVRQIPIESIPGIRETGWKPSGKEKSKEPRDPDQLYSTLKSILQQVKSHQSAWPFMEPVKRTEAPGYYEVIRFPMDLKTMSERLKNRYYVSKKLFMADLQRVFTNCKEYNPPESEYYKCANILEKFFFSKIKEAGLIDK
Chain of p300-HAT (Q09472 1287-1663 limits assumed): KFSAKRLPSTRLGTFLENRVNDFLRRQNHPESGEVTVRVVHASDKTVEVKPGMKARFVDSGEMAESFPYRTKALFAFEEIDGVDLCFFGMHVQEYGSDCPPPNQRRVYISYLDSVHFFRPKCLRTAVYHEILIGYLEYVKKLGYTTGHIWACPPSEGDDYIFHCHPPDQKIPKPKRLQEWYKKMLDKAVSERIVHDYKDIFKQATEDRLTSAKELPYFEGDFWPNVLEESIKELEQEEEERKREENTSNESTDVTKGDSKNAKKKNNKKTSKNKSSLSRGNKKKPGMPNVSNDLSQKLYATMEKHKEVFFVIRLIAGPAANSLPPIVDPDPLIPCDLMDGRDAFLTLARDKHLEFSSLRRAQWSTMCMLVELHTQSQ
Chain of MYST4 (Q8WYB5 whole entry, species assumed): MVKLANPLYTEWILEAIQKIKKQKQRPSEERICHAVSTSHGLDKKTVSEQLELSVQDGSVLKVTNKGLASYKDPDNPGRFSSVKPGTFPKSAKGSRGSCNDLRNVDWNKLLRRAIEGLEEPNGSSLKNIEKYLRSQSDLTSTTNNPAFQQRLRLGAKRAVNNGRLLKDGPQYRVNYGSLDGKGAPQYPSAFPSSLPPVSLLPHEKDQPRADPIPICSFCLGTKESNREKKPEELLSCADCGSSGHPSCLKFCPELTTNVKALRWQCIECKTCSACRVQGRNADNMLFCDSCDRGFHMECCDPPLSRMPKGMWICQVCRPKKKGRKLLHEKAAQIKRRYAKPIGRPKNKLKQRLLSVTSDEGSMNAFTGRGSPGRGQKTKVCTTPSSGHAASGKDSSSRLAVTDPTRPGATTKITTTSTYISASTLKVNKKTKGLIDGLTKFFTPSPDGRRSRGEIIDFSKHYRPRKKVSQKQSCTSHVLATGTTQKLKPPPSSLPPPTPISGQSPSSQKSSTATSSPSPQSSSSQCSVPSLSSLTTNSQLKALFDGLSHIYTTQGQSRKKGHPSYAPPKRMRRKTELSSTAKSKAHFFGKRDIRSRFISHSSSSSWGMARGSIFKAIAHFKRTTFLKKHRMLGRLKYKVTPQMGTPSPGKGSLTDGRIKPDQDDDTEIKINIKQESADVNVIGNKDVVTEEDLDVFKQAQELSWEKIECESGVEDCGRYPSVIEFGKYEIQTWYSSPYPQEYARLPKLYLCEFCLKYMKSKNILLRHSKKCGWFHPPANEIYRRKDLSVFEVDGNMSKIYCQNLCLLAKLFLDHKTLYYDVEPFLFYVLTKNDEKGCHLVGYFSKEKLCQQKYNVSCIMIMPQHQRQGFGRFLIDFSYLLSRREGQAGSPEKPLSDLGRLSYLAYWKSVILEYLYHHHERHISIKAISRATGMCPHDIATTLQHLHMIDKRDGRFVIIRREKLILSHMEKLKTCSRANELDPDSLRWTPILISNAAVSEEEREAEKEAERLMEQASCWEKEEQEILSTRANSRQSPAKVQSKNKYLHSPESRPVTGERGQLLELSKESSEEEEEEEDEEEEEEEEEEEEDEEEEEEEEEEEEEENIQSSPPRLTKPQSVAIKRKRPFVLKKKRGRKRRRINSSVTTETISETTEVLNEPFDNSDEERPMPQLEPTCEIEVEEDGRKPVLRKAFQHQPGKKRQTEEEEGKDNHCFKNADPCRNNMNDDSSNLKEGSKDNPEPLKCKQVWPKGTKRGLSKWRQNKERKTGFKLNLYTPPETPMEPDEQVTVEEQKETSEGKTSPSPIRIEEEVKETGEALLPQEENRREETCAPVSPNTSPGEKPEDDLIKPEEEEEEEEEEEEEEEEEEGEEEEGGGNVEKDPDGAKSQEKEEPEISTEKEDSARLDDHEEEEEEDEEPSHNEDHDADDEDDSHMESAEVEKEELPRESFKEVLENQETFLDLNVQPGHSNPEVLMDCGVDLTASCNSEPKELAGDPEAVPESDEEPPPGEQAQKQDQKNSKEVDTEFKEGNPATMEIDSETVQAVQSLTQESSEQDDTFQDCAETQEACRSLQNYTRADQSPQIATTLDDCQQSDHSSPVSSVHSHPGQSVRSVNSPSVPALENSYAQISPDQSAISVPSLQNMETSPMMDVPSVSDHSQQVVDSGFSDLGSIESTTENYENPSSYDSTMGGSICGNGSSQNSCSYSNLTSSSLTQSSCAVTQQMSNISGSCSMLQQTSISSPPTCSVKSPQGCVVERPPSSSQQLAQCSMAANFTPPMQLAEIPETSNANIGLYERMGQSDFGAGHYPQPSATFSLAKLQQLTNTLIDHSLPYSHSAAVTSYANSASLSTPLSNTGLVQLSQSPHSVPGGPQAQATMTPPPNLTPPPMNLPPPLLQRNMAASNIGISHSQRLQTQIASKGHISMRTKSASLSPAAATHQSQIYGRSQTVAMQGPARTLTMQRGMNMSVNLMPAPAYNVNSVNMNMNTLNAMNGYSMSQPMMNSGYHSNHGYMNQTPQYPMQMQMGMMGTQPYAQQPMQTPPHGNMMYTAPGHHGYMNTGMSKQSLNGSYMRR
Chain of p300-BHC (bromodomain-HAT-C/H3) domain (Q09472 1049-1809 limits assumed): as the sequence (Q09472 1049-1809 limits assumed) above
Chain of GCN5L2 (Q92830 whole entry): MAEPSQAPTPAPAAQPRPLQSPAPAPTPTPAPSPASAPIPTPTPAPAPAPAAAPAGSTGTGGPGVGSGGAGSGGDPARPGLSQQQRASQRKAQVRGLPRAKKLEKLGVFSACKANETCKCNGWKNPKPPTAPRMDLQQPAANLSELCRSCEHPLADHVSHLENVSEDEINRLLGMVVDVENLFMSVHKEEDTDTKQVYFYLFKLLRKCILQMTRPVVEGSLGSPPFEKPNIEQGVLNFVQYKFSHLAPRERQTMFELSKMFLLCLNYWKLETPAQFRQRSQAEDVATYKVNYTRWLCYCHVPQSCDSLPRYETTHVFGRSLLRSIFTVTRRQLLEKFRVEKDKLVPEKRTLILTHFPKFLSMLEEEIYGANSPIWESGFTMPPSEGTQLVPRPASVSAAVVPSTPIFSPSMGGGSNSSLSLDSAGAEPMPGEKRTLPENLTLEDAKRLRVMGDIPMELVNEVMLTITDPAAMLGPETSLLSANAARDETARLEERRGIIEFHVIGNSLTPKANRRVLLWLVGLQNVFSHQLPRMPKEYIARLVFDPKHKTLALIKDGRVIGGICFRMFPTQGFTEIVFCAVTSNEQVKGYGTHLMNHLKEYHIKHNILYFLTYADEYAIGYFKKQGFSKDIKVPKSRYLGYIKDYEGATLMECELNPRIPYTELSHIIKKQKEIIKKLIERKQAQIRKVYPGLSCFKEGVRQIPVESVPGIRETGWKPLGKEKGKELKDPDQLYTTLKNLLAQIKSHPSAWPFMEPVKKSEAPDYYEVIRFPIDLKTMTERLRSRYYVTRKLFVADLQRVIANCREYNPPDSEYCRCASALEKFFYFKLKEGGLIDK

SMILES: CC1=NN(c2ccc(C(=O)O)cc2)C(=O)/C1=C\c1ccc(-c2cc(C)c(C)cc2[N+](=O)[O-])o1 [Compound C646, reference compound]
effect on H3K27Ac, in words [1]: only modest inhibition

fold weaker binding than A-485 [4]: ~ 1,000 fold | fold less potent than A-485 [5]: ~ 1000 fold
SMILES: CNC(=O)Nc1ccc2c(c1)[C@@]1(CC2)OC(=O)N(CC(=O)N(Cc2ccc(F)cc2)[C@@H](C)C(F)(F)F)C1=O [Compound A-486]
effect on H3K27Ac, in words [1]: inactive | inhibition of proliferation [2]: inactive | PSA expression [3]: inactive

SMILES: CNC(=O)c1ccc(N2C(=S)N(c3ccc(C#N)c(C(F)(F)F)c3)C(=O)C2(C)C)cc1F [enzalutamide, reference compound]
inhibition of proliferation [2]: inactive | PSA expression [3]: inactive | AR occupancy at the PSA enhancer [6]: decreased AR occupancy | H3K27Ac at the PSA enhancer [6]: reduced H3K27Ac binding | effect on DHT responsive genes, in words [7]: inactive | c-Myc expression [8]: no effect

increase of thermostability of p300-BHC [9]: 5.8 °C
SMILES: CC(=O)N[C@@H](CCCCNC(=O)CSCCNC(=O)CCNC(=O)[C@H](O)C(C)(C)COP(=O)(O)OP(=O)(O)OC[C@H]1O[C@@H](n2cnc3c(N)ncnc32)[C@H](O)[C@@H]1OP(=O)(O)O)C(N)=O [Lys-CoA]

SMILES: CNC(=O)Nc1ccc2c(c1)CC[C@@]21OC(=O)N(CC(=O)N(Cc2ccc(F)cc2)[C@@H](C)C(F)(F)F)C1=O [Compound A-485]
binding to dopamine transporter [10]: > 90% | binding to serotonin transporter [11]: > 90% | competition with peptide substrate binding [12]: not competitive with the peptide substrate | inhibition of proliferation [2]: inhibited proliferation | DHT-stimulated PSA expression [13]: attenuated DHT-stimulated PSA expression more potently than the AR antagonist enzalutamide | PSA expression [3]: decreased PSA expression | H3K27Ac at the PSA enhancer [6]: reduced H3K27Ac binding | c-Myc expression [8]: robustly decreased | tumor mRNA levels of SLC45A3 and c-Myc [14]: decrease | brain exposure [15]: does not achieve significant brain exposure | inhibition of PCAF activity [16]: did not inhibit | inhibition of HAT1 activity [17]: did not inhibit | inhibition of MYST3 activity [18]: did not inhibit | inhibition of MYST4 activity [19]: did not inhibit | inhibition of TIP60 activity [20]: did not inhibit | inhibition of GCN5L2 activity [21]: did not inhibit | EC50 [22]: > 10 µM | inhibition of proliferation [23]: potent inhibition of proliferation
